From patent publication US9309248B2, “Azaindolines” (Hoffmann-La Roche Inc., priority 2012, dated 2016)

How the values were obtained:
[1] = target: T1, BIR2 domain of XIAP (Homo sapiens, UniProt P98170, C202A/C213G); assay: TR-FRET assay for BIR2 (inhibition of binding of XIAP BIR2 domain to SMAC-derived Peptide A); conditions: 6x Histidine-tagged BIR2 domain (amino acids 124-240 of XIAP) 10 nM, Peptide A 20 nM
T1 construct: 6× Histidine-tagged BIR2 domain, corresponding to amino acids 124-240 of XIAP
T1 sequence (P98170 with tags, fused parts or gaps C202A/C213G): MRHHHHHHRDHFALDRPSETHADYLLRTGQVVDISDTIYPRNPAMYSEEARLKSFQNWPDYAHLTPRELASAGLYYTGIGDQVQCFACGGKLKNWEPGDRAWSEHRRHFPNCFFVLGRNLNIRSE
Protocol: (§1) TR-FRET Assay for BIR2 and BIR3
(§2) The ability of a test compound to inhibit the binding of BIR2 and/or BIR3 domains of the XIAP protein to Peptide A (a SMAC-derived peptide described below) evidences that the test compound acts as a SMAC-mimetic resulting in reactivation of a cell's apoptotic pathway.
(§3) The peptides were labeled with the fluorescent tags FITC or TAMRA and Kd values were determined by fluorescence polarization assay. […] The peptide sequence was derivatized with biotin to provide […]-(ε-biotin)-OH 1:2 TFA as the substrate for the TR-FRET assay.
The XIAP protein sequence was obtained from the SWISS-PROT protein sequence database and the BIR2 and BIR3 domains were derived from that. The sequence of the BIR2 domain used for the TR-FRET assay is […].
Time-resolved fluorescence resonance energy transfer (TR-FRET) signals were measured 1 hour later at room temperature. Test compound potency was assessed at 10 serially diluted concentrations. Percentage of inhibition at each concentration was determined to generate an IC50 value for each test compound.

[2] = target: T2, BIR3 domain of XIAP (Homo sapiens, UniProt P98170); assay: TR-FRET assay for BIR3 (inhibition of binding of XIAP BIR3 domain to SMAC-derived Peptide A); conditions: 6x Histidine-tagged BIR3 domain (amino acids 241-356 of XIAP) 10 nM, Peptide A 20 nM
T2 construct: BIR3 domain, corresponding to amino acids 241-356 of XIAP
T2 sequence (P98170 with tags, fused parts or gaps): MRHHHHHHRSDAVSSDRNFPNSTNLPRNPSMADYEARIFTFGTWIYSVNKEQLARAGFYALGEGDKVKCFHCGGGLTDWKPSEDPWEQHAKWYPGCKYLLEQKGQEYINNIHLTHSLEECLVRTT
Protocol: as §1, §2, §3
The sequence of the BIR3 domain used for the TR-FRET assay is […]
Ten nanomolar of 6× Histidine-tagged BIR2 domain, corresponding to amino acids 124-240 of XIAP, or BIR3 domain, corresponding to amino acids 241-356 of XIAP, was mixed with 20 nM of the peptide […]-(z-biotin)-OH 1:2 TFA, in the presence of 50 mM Tris-Cl, pH 7.5, 100 mM NaCl, 1 mM dithiothreitol (DTT) and 0.1 mg/mL bovine serum albumin (BSA). Following a […] incubation at 37° C., Europium-Streptavidin and Allophycocyanin conjugated anti-Histidine antibody were added to a final concentration of 1.5 nM and 15 nM, respectively. Time-resolved fluorescence resonance energy transfer (TR-FRET) signals were measured 1 hour later at room temperature. Test compound potency was assessed at 10 serially diluted concentrations. Percentage of inhibition at each concentration was determined to generate an IC50 value for each test compound.

| IC50 [1] [µM] | IC50 [2] [µM] | SMILES |
| --- | --- | --- |
| 1.04 | > 54.8 | CCNC(=O)C1Cc2cccnc2N1C(=O)[C@@H](NC(=O)[C@H](C)NC)C(C)C (mixture of isomers) [Example 1, (R,S)-1-[(S)-3-Methyl-2-((S)-2-methylamino-propionylamino)-butyryl]-2,3-dihydro-1H-pyrrolo[2,3-b]pyridine-2-carboxylic acid ethylamide] |
| 3.88 | > 54.8 | CN[C@@H](C)C(=O)N[C@H](C(=O)N1CC(C)(C)c2cccnc21)C(C)C [Example 2, (S)—N—[(S)-1-(3,3-Dimethyl-2,3-dihydro-pyrrolo[2,3-b]pyridine-1-carbonyl)-2-methyl-propyl]-2-methylamino-propionamide] |
| 4.03 | > 54.8 | CC[C@H](NC)C(=O)N[C@H](C(=O)N1CC(C)(C)c2cccnc21)C(C)C [Example 3, (S)—N—[(S)-1-(3,3-Dimethyl-2,3-dihydro-pyrrolo[2,3-b]pyridine-1-carbonyl)-2-methyl-propyl]-2-methylamino-butyramide] |
| 2.12 | > 54.8 | CCNC(=O)C1Cc2cccnc2N1C(=O)[C@@H](NC(=O)[C@H](C)NC)C1CCCCC1 (stereo partly drawn) [Example 4, (R,S)-1-[(S)-2-Cyclohexyl-2-((S)-2-methylamino-propionylamino)-acetyl]-2,3-dihydro-1H-pyrrolo[2,3-b]pyridine-2-carboxylic acid ethylamide] |
| 1.86 | > 54.8 | CCNC(=O)C1Cc2cccnc2N1C(=O)[C@@H](NC(=O)[C@H](CC)NC)C1CCCCC1 (stereo partly drawn) [Example 5, (R,S)-1-[(S)-2-Cyclohexyl-2-((S)-2-methylamino-butyrylamino)-acetyl]-2,3-dihydro-1H-pyrrolo[2,3-b]pyridine-2-carboxylic acid ethylamide] |
| 1.28 | > 54.8 | CCNC(=O)C1Cc2cccnc2N1C(=O)[C@@H](NC(=O)[C@H](C)NC)[C@@H](C)CC (stereo partly drawn) [Example 6, (R,S)-1-[(2S,3S)-3-Methyl-2-((S)-2-methylamino-propionylamino)-pentanoyl]-2,3-dihydro-1H-pyrrolo[2,3-b]pyridine-2-carboxylic acid ethylamide] |
| 1.03 | > 54.8 | CCNC(=O)C1Cc2cccnc2N1C(=O)[C@@H](NC(=O)[C@H](CC)NC)[C@@H](C)CC (stereo partly drawn) [Example 7, (R,S)-1-[(2S,3S)-3-Methyl-2-((S)-2-methylamino-butyrylamino)-pentanoyl]-2,3-dihydro-1H-pyrrolo[2,3-b]pyridine-2-carboxylic acid ethylamide] |
| 0.501 | > 54.8 | CN[C@@H](C)C(=O)N[C@H](C(=O)N1c2ncccc2CC1C(N)=O)C(C)C (stereo partly drawn) [Example 8, (R,S)-1-[(S)-3-Methyl-2-((S)-2-methylamino-propionylamino)-butyryl]-2,3-dihydro-1H-pyrrolo[2,3-b]pyridine-2-carboxylic acid amide] |
| 12.7 | > 54.8 | CN[C@@H](C)C(=O)N[C@H](C(=O)N1c2ncccc2C[C@@H]1C(=O)Nc1ccccc1OC)C(C)C [Example 9, (R)-1-[(S)-3-Methyl-2-((S)-2-methylamino-propionylamino)-butyryl]-2,3-dihydro-1H-pyrrolo[2,3-b]pyridine-2-carboxylic acid (2-methoxy-phenyl)-amide] |
| 0.0841 | 25.9 | CN[C@@H](C)C(=O)N[C@H](C(=O)N1c2ncccc2C[C@H]1C(=O)Nc1ccccc1OC)C(C)C [Example 10, (S)-1-[(S)-3-Methyl-2-((S)-2-methylamino-propionylamino)-butyryl]-2,3-dihydro-1H-pyrrolo[2,3-b]pyridine-2-carboxylic acid (2-methoxy-phenyl)-amide] |
| 0.0635 | > 54.8 | CN[C@@H](C)C(=O)N[C@H](C(=O)N1c2ncccc2C[C@H]1C(=O)Nc1ccccc1)C(C)C [Example 11, (S)-1-[(S)-3-Methyl-2-((S)-2-methylamino-propionylamino)-butyryl]-2,3-dihydro-1H-pyrrolo[2,3-b]pyridine-2-carboxylic acid phenylamide] |
